Measured values as given in patent publication US20060025446A1, “Propargyl nitroxides and indanyl nitroxides and their use for the treatment of neurologic diseases and disorders” (priority 2004, published 2006).
Where a name gives a salt, the structure may show the parent alone.

Assays:
[1] = tested on: Human Red Blood Cells; experiment: Hypochlorite (HOCl) hemolysis of human red blood cells model; assay type: cell-based; settings: antioxidant activity; compounds dissolved at 5 mg/ml, aliquots tested
Description: Hypochlorite (HOCl) Hemolysis of Human Red Blood Cells Model
The reaction is based on the ability of oxygen radicals to lyse red blood cells. Antioxidant compounds such as ascorbic acid and 4-hydroxy-TEMPO (TEMPOL) prevent membrane damage in a dose dependent manner. All compounds were dissolved at a concentration of 5 mg/ml and aliquots were tested for their ability to prevent lysis.

[2] = Chemiluminescence model (without cells): Luminol, SIN-1, selenite, BSA; assay type: biochemical; settings: antioxidant activity
Description: Chemiluminescence Model (Without Cells)
Luminescence was generated in vials containing the following compounds: Luminol, SIN-1 (a generator of NO radicals), selenite, BSA. This reaction is inhibited by scavengers of peroxynitirites as well as scavengers of NO and other oxygen free radicals.

[3] = tested on: Neutrophils; experiment: PMA-induced oxidative burst in neutrophils model (DCFH, FACS); assay type: cell-based; settings: PMA 10 ng/ml for 30 minutes
Description: PMA-Induced Oxidative Burst in Neutrophils Model
The cells were activated with PMA (10 ng/ml) for 30 minutes and incubated with 2,7-dichlorodihydrofluorescin diacetate (DCFH), which is converted to a fluorescent compound in the presence of oxygen radicals and peroxynitrites. The fluorescent cells were detected in a cell sorter (FACS).

[4] = tested on: Experimental Allergic Encephalomyelitis (EAE) using PLP 139-151; experiment: PLP induced EAE in mice; assay type: in vivo, Female SJL mice; settings: 50 mg/kg/day orally by gavage, day 1 to day 20; for Incid.: sick animals/animals in group
Description: Induction of Experimental Allergic Encephalomyelitis (EAE) Using PLP
Female SJL mice (12 weeks old) were inoculated with the encephalitogienic peptide of proteolipid protein (PLP 139-151) synthesized to a purity of 70% by Sigma (Israel). 150 μg of the peptide were emulsified in complete Freund's adjuvant (CFA) (Difco Laboratories), supplemented with killed mycobacteria (5 mg/ml) and pertussis toxin (200 ng) (Sigma), given subcutaneously at day of inoculation only.
Mice were kept at specific pathogen free (SPF) conditions and given water and food ad libitum. Mice were daily observed for clinical signs from day 10 until day 18-21 post inoculation.
Treatment with Test Compounds
Compounds were dissolved in 2-hydroxypropyl beta cyclodextrin (40% water solution). Treatment started at day 1 post inoculation. The compounds B10 and A10 (50 mg/kg) and vehicle were given orally by gavage every day until day 20 post inoculation.
Interpretation of Results: Calculation of the Incidence of Disease
The number of sick animals in each group was summed. The percentage of sick animals in each group was calculated.
Calculation of the Mean Maximal Score (MMS)
The maximal scores of each of the 15 mice in the group were summed.
The mean maximal score of the group were calculated as follows: Σ maximal score of each mouse/number of mice in the group. Calculation of the Mean Disease Duration (MDD)
The mean duration of disease expressed in days was calculated as follows: Σ duration of disease of each mouse/number of mice in the group. Calculation of the Group Mean Score (GMS)
The scores of each of the 15 mice in the group was summed and the mean score per day was calculated.
The group mean score was calculated as follows: Σ total score of each mouse per day/number of mice in the group.

[5] = tested on: NGF-Differentiated PC12 Cells; experiment: MPP+ Parkinson neurotoxicity/neuroprotection model, LDH release; assay type: cell-based; settings: MPP+ 1000 μM, 48-52 hr
Description: The Parkinson Neurotoxicity Model of 1-methyl-4-phenyl piridinium (MPP+ Iodine Salt, 1000 μM for 48-52 hr), Using 7-10 Days NGF-Differentiated PC12 Cells.
The slow developing cell death in this model is believed to be a result of inhibition of mitochondrial complex I and generation of oxygen and nitrogen radicals. Therefore the antioxidant tempol (4-HYDROXY-TEMPO) was used as a positive standard in the screening experiments with the compounds. The following detailed protocol was employed for testing.
MPP+—Neurotoxicity/Neuroprotection Protocol:
• 1. PC12 cells (2×10^5 cells) were seeded on NUNC 6-well dishes coated with 200 μg/ml collagen (rat tail type I) and grown in DMEM medium containing 7% Fetal Calf Serum, 7% Horse Serum and […] Penicilin and 100 ug/ml Streptomycin. • 2. Differentiation of the cells for 7-10 days was achieved by treatment with mouse β-NGF (β-nerve growth factor) (50 ng/ml) added freshly every 2-3 days to the culture medium. • 3. Cultures were progressively evaluated for the differentiation response expressed by elongation of neurites, increased percentage of responsive cells, and other morphological parameters. • 4. At the day of the experiment, the medium of the differentiated cultures was replaced to fresh medium containing NGF (50 ng/ml). • 5. […] LDH (lactic dehydrogenase) release to the medium (neurotoxicity) was measured after 48-52 hr after the addition of MPP+, using an ELISA reader. […]
Neurotoxicity is defined as the percentage of LDH released to the medium at the end of the experiment calculated according to the following formula: {LDH(MPP)−LDH(control)}/{LDH(total)−LDH(control)}×100=Neurotoxicity (% of total cell death) • LDH(MPP): LDH release at the end of MPP+ insult • LDH(control): LDH release at the end of experiment from untreated cultures • LDH(total): LDH released from the cultures upon freezing at −80° C. and thawing at room temperature (release of total/maximal LDH present in the culture) […]

[6] = tested on: EAE using MOG (Myelin Oligodendrocyte Glycoprotein); experiment: MOG induced EAE in mice; assay type: in vivo, Female C57B1/6 mice
[7] = dose 50 mg/kg/day, gavage x2/day, day 1 to 30

Compound | HOCl (% lysis) [1] [%] | Chemiluminescence (% inhib.) [2] [%] | PMA (% cells activated) [3] [%] | MDD (mean disease duration) [4] [days] | MDO (mean day of onset) [4] | MMS (mean maximal score) [4] | Mean score [4] | Incid. [4] | other results
O=C1O[C@H]([C@@H](O)CO)C(O)=C1O [Ascorbic acid] | 100 | 100 | 100 | – | – | – | – | – | –
C#CCN[C@@H]1CCc2ccc(OC(=O)NC3CC(C)(C)N([O])C(C)(C)C3)cc21.Cl [Compound A10, (2,2,6,6-Tetramethyl-1-piperidinyloxy-4-yl)-carbamic acid 3(R)-prop-2-ynylamino-indan-5-yl ester HCl] | – | – | – | 5.8 ± 0.86 | 11 ± 0.2 | 5.0 ± 0.8 | 3.4 ± 0.3 | 5/5 | –
C#CCN[C@@H]1CCc2ccc(NC(=O)OC3CC(C)(C)N([O])C(C)(C)C3)cc21 [Compound A11, (3-Prop-2-ynylamino-indan-5-yl) carbamic acid 2,2,6,6-tetramethyl-1-piperidinyloxy-4-yl ester HCl] | – | – | – | – | – | – | – | – | Neuroprotection MPP+ ([5]; at 10 μM): 43% at 10; effect on EAE ([6]; discussion of results): significant beneficial effect; onset of clinical signs of EAE ([6]; discussion of results): long delay; MDD (mean disease duration) [6, 7]: 8.0 ± 2.02 days; MDO (mean day of onset) [6, 7]: 17.14 ± 0.80; MMS (mean maximal score) [6, 7]: 2.93 ± 0.76; Mean score [6, 7]: 0.65 ± 0.09; Incid. ([6]; sick animals/animals in group, dose 50 mg/kg/day, gavage x2/day, day 1 to 30): 7/13
C#CCNC1CC(C)(C)N([O])C(C)(C)C1.Cl [Compound B10, 2,2,6,6-Tetramethyl-4-(prop-2-ynylamino)-piperidine nitroxide HCl] | 45 | 42 | – | 5.2 ± 0.97 | 13.6 ± 0.81 | 5.0 ± 0.77 | 3.57 ± 0.29 | 5/5 | Neuroprotection MPP+ ([5]; at 1 & 10 μM): Active at 1 & 10; (# dead) [4]: 3
CC1(C)CC(O)CC(C)(C)N1[O] [Tempol, 4-hydroxy-2,2,6,6-tetramethylpiperidine-1-nitroxide] | 25 | 57 | 70 | – | – | – | – | – | Neuroprotection MPP+ ([5]; at 0.5-1.0 mmol): Active at 0.5-1.0
